Measured values taken from patent US12448395B2 (BRISTOL-MYERS SQUIBB COMPANY, priority 2019, dated 2025).

Target: T1, human TLR9 (Homo sapiens, UniProt Q9NR96)
T1 sequence (Q9NR96 26-1032): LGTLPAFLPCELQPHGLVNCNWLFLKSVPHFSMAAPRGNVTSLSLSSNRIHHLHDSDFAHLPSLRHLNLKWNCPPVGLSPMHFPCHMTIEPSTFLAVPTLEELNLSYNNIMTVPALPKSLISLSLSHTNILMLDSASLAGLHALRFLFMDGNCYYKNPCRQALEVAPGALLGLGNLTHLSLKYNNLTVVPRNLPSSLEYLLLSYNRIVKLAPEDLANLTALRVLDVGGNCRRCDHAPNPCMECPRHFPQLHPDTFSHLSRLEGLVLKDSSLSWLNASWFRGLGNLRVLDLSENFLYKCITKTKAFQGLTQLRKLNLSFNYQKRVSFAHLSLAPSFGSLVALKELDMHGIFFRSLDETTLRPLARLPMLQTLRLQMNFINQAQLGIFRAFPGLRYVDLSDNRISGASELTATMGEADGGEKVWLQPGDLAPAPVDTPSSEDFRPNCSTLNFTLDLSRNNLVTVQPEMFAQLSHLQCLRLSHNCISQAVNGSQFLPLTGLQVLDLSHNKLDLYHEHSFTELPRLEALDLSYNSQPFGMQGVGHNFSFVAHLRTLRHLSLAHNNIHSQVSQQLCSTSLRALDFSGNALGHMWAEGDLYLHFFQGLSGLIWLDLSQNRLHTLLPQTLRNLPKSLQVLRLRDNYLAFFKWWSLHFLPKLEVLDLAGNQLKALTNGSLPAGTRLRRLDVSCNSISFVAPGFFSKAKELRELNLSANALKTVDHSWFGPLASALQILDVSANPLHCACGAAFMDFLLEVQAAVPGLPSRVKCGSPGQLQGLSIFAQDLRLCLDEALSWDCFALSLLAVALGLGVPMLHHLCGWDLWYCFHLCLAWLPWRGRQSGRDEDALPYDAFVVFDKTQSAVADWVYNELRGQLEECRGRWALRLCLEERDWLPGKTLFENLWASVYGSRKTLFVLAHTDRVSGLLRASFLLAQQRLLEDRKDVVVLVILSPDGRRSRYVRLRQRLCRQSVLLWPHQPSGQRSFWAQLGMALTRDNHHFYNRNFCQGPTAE
Experiment: TLR9 inhibition reporter assay (HEK-Blue SEAP, ODN2006 stimulation)
Type: cell-based
Settings: HEK-Blue cells overexpressing human TLR9, ODN2006 5 nM
Procedure: TLR7/8/9 Inhibition Reporter Assays
HEK-Blue™-cells (Invivogen) overexpressing human TLR7, TLR8 or TLR9 receptors were used for screening inhibitors of these receptors using an inducible SEAP (secreted embryonic alkaline phosphatase) reporter gene under the control of the IFN-β minimal promoter fused to five NF-κB and AP-1-binding sites. Briefly, cells are seeded into Greiner 384 well plates (15000 cells per well for TLR7, 20,000 for TLR8 and 25,000 for TLR9) and then treated with test compounds in DMSO to yield a final dose response concentration range of 0.05 nM-50 μM. After a 30 minute compound pre-treatment at room temperature, the cells are then stimulated with a TLR7 ligand (gardiquimod at a final concentration of 7.5 μM), TLR8 ligand (R848 at a final concentration of 15.9 μM) or TLR9 ligand (ODN2006 at a final concentration of 5 nM) to activate NF-κB and AP-1 which induce the production of SEAP. After a 22 hour incubation at 37° C., 5% CO2, SEAP levels are determined with the addition of HEK-Blue™ Detection reagent (Invivogen), a cell culture medium that allows for detection of SEAP, according to manufacturer's specifications. The percent inhibition is determined as the % reduction in the HEK-Blue signal present in wells treated with agonist plus DMSO alone compared to wells treated with a known inhibitor.

SMILES	IC50 [µM]
Cc1c(-c2[nH]c3sc(C4CCN(CCS(C)(=O)=O)CC4)nc3c2C(C)C)cn(C)c(=O)c1C [Example 61, 5-(6-isopropyl-2-(1-(2-(methylsulfonyl)ethyl)piperidin-4-yl)-4H-pyrrolo[3,2-d]thiazol-5-yl)-1,3,4-trimethylpyridin-2 (1H)-one]	> 50
Cc1c(-c2[nH]c3sc(N4CCN(CC(N)=O)C[C@H]4C)nc3c2C(C)C)cn2ncnc2c1C [Example 313, (R)-2-(4-(5-(7,8-dimethyl-[1,2,4]triazolo[1,5-a]pyridin-6-yl)-6-isopropyl-4H-pyrrolo[3,2-d]thiazol-2-yl)-3-methylpiperazin-1-yl)acetamide]	> 50
Cc1c(-c2[nH]c3sc(CN4CC5(C4)CS(=O)(=O)C5)nc3c2C(C)C)cn2ncnc2c1C [Example 403, 6-((5-(7,8-dimethyl-[1,2,4]triazolo[1,5-a]pyridin-6-yl)-6-isopropyl-4H-pyrrolo[3,2-d]thiazol-2-yl)methyl)-2-thia-6-azaspiro[3.3]heptane 2,2-dioxide]	> 50
Cc1c(-c2[nH]c3sc(C4CCN(CC(=O)N(C)C)CC4)nc3c2C(C)C)cn(C)c(=O)c1C [Example 62, 2-(4-(6-isopropyl-5-(1,4,5-trimethyl-6-oxo-1,6-dihydropyridin-3-yl)-4H-pyrrolo[3,2-d]thiazol-2-yl)piperidin-1-yl)-N,N-dimethylacetamide]	> 50
Cc1c(-c2[nH]c3sc(N4C[C@@H](C)N(CC(=O)N(C)C)C[C@@H]4C)nc3c2C(C)C)cn2ncnc2c1C [Example 335, 2-((2R,5S)-4-(5-(7,8-dimethyl-[1,2,4]triazolo[1,5-a]pyridin-6-yl)-6-isopropyl-4H-pyrrolo[3,2-d]thiazol-2-yl)-2,5-dimethylpiperazin-1-yl)-N,N-dimethylacetamide]	> 50
Cc1cc(-c2[nH]c3sc(C(=O)NCC4(S(C)(=O)=O)CC4)nc3c2C(C)C)cn2ncnc12 [Example 399, 6-isopropyl-5-(8-methyl-[1,2,4]triazolo[1,5-a]pyridin-6-yl)-N-((1-(methylsulfonyl)cyclopropyl)methyl)-4H-pyrrolo[3,2-d]thiazole-2-carboxamide]	> 50
Cc1c(-c2[nH]c3sc(N4CCN(CC(=O)N(C)C)C[C@@H]4C)nc3c2C(C)C)cn2ncnc2c1C [Example 343, (S)-2-(4-(5-(7,8-dimethyl-[1,2,4]triazolo[1,5-a]pyridin-6-yl)-6-isopropyl-4H-pyrrolo[3,2-d]thiazol-2-yl)-3-methylpiperazin-1-yl)-N,N-dimethylacetamide]	> 50
Cc1c(-c2[nH]c3sc(N4CCN(C5CCC5)C[C@@H]4C)nc3c2C(C)C)cn2ncnc2c1C [Example 349]	> 50
Cc1c(-c2[nH]c3sc(C(=O)N4CCN(S(C)(=O)=O)CC4)nc3c2C(C)C)cn2ncnc2c1C [Example 384, (5-(7,8-dimethyl-[1,2,4]triazolo[1,5-a]pyridin-6-yl)-6-isopropyl-4H-pyrrolo[3,2-d]thiazol-2-yl)(4-(methylsulfonyl)piperazin-1-yl) methanone]	> 50
Cc1cc(-c2[nH]c3sc(N4CCN(C(=O)CN(C)C)C[C@H]4C)nc3c2C(C)C)cn2ncnc12 [Example 360, (R)-2-(dimethylamino)-1-(4-(6-isopropyl-5-(8-methyl-[1,2,4]triazolo[1,5-a]pyridin-6-yl)-4H-pyrrolo[3,2-d]thiazol-2-yl)-3-methylpiperazin-1-yl)ethan-1-one]	> 50
Cc1c(-c2[nH]c3sc(C4CCN(C5COC5)CC4)nc3c2C(C)C)cn(C)c(=O)c1C [Example 60, 5-(6-isopropyl-2-(1-(oxetan-3-yl)piperidin-4-yl)-4H-pyrrolo[3,2-d]thiazol-5-yl)-1,3,4-trimethylpyridin-2 (1H)-one]	> 50
Cc1c(-c2[nH]c3sc(N4CCN(C(=O)C5CCS(=O)(=O)CC5)C[C@@H]4C)nc3c2C(C)C)cn2ncnc2c1C [Example 347, (S)-(4-(5-(7,8-dimethyl-[1,2,4]triazolo[1,5-a]pyridin-6-yl)-6-isopropyl-4H-pyrrolo[3,2-d]thiazol-2-yl)-3-methylpiperazin-1-yl)(1,1-dioxidotetrahydro-2H-thiopyran-4-yl)methanone]	> 50
COc1cc(-c2[nH]c3sc(C(=O)NCC(F)(F)F)nc3c2C(C)C)cn2ncnc12 [Example 390, 6-isopropyl-5-(8-methoxy-[1,2,4]triazolo[1,5-a]pyridin-6-yl)-N-(2,2,2-trifluoroethyl)-4H-pyrrolo[3,2-d]thiazole-2-carboxamide]	> 50
Cc1cc(-c2[nH]c3sc(C(=O)N4CCOCC4)nc3c2C(C)C)cn2ncnc12 [Example 398, (6-isopropyl-5-(8-methyl-[1,2,4]triazolo[1,5-a]pyridin-6-yl)-4H-pyrrolo[3,2-d]thiazol-2-yl)(morpholino)methanone]	> 50
Cc1c(-c2[nH]c3sc(C4CCN(CC(N)=O)CC4)nc3c2C(C)C)cn(C)c(=O)c1C [Example 64, 2-(4-(6-isopropyl-5-(1,4,5-trimethyl-6-oxo-1,6-dihydropyridin-3-yl)-4H-pyrrolo[3,2-d]thiazol-2-yl)piperidin-1-yl)acetamide]	> 50
Cc1c(-c2[nH]c3sc(C(=O)N4CCCC4)nc3c2C(C)C)cn2ncnc2c1C [Example 377, (5-(7,8-dimethyl-[1,2,4]triazolo[1,5-a]pyridin-6-yl)-6-isopropyl-4H-pyrrolo[3,2-d]thiazol-2-yl)(pyrrolidin-1-yl)methanone]	> 50
Cc1c(-c2[nH]c3sc(N4CCN(C5COC5)C[C@@H]4C)nc3c2C(C)C)cn2ncnc2c1C [Example 348, (S)-5-(7,8-dimethyl-[1,2,4]triazolo[1,5-a]pyridin-6-yl)-6-isopropyl-2-(2-methyl-4-(oxetan-3-yl)piperazin-1-yl)-4H-pyrrolo[3,2-d]thiazole]	> 50
CNC(=O)CN1CCN(c2nc3c(C(C)C)c(-c4cn5ncnc5c(C)c4C)[nH]c3s2)[C@@H](C)C1 [Example 342, (S)-2-(4-(5-(7,8-dimethyl-[1,2,4]triazolo[1,5-a]pyridin-6-yl)-6-isopropyl-4H-pyrrolo[3,2-d]thiazol-2-yl)-3-methylpiperazin-1-yl)-N-methylacetamide]	> 50
Cc1cc(-c2[nH]c3sc(C(N)=O)nc3c2C(C)C)cn2ncnc12 [Example 391, 6-isopropyl-5-(8-methyl-[1,2,4]triazolo[1,5-a]pyridin-6-yl)-4H-pyrrolo[3,2-d]thiazole-2-carboxamide]	> 50
Cc1c(-c2[nH]c3sc(N4CCN(CCS(C)(=O)=O)CC4)nc3c2C(C)C)cn2ncnc2c1C [Example 282, 5-(7,8-dimethyl-[1,2,4]triazolo[1,5-a]pyridin-6-yl)-6-isopropyl-2-(4-(2-(methylsulfonyl)ethyl)piperazin-1-yl)-4H-pyrrolo[3,2-d]thiazole]	> 50
